{"source": "patent US20240293413A1", "about": "“COMPOUND AND METHOD FOR TREATING CHEMOTHERAPY-RELATED GASTROINTESTINAL SIDE EFFECTS” (ONQUALITY PHARMACEUTICALS CHINA LTD., priority 2021, published 2024)", "key": {"[1]": {"tested_on": "Chemotherapeutic agent-caused diarrhea models of Balb/c mice", "test": "Examples 1-229 (Table 3): oral CDK inhibitor, relief of diarrhea caused by a chemotherapeutic agent;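 further: percent of treated mice whose diarrhea grade fell below chemotherapy-group average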", "format": "in vivo"}, "[2]": {"tested_on": "diarrhea caused by a chemotherapeutic agent in Balb/c mice", "test": "Examples 382-405 (Table 7): various administration modes of the CDK inhibitor, relief of diarrhea caused by a chemotherapeutic agent", "format": "in vivo", "from_the_text": "Balb/c mice were fed for 1 week, and then divided into groups. The experiment was divided into a control group, a chemotherapeutic agent group, CDK inhibitor groups (including an oral administration group of a CDK inhibitor, an intraperitoneal injection group of a CDK inhibitor, an intramuscular injection group of a CDK inhibitor, a local administration group of a CDK inhibitor), each of which comprised 10 mice, to perform the administration experiment, for which the administration dosage, mode, time and frequency were shown in Table 7. The control group: being administered with the same solvent as that used in the CDK inhibitor group (the time and mode were shown in Table 7), and then being injected/intragastrically administered with the same solvent as that used in the chemotherapeutic agent group (the administration mode was shown in Table 7): the chemotherapeutic agent group: being administered with the same solvent as that used in the CDK inhibitor group (the time and mode were shown in Table 7), and then being injected/intragastrically administered with the chemotherapeutic agent (the type, administration mode and dosage were shown in Table 7): the oral administration group of the CDK inhibitor: being intragastrically administered with the CDK inhibitor (the time was shown in Table 7), and then being administered with the chemotherapeutic agent (the mode and dosage were shown in Table 7): the intraperitoneal injection group of the CDK inhibitor: being intraperitoneally injected with the CDK inhibitor (the time was shown in Table 7), and then being administered with the chemotherapeutic agent (the mode and dosage were shown in Table 7): the intramuscular injection group of the CDK inhibitor: being intramuscularly injected with the CDK inhibitor (the time was shown in Table 7), and then being administered with the chemotherapeutic agent (the mode and dosage were shown in Table 7); and the local administration group of the CDK inhibitor: the hair on the abdomen of mice was shaved (about 2 cm*2 cm), being applied with the CDK inhibitor (the time was shown in Table 7), and then being administered with the chemotherapeutic agent (the mode and dosage were shown in Table 7).\nThe diarrhea grading of mice was observed and recorded every day."}}}
{"smiles": "CN1CCN(c2ccc(Nc3ncc4cc5n(c4n3)C3(CCCCC3)CNC5=O)nc2)CC1", "note": "[Trilaciclib (G1T28), Trilaciclib]", "values": [{"measurement": "Relative remission rate (%)", "setting": "[1]; Example 49, Oxaliplatin intraperitoneal injection 20 mg/kg single, CDK inhibitor oral 100 mg/kg single 0.5 h before, cycle 8 days", "value": 60, "unit": "%"}, {"measurement": "Relative remission rate (%)", "setting": "[1]; Example 50, Oxaliplatin intraperitoneal injection 20 mg/kg single, CDK inhibitor oral 100 mg/kg single 1 h before, cycle 8 days", "value": 50, "unit": "%"}, {"measurement": "Relative remission rate (%)", "setting": "[1]; Example 51, Oxaliplatin intraperitoneal injection 20 mg/kg single, CDK inhibitor oral 100 mg/kg single 2 h before, cycle 8 days", "value": 40, "unit": "%"}, {"measurement": "Relative remission rate (%)", "setting": "[1]; Example 52, Oxaliplatin intraperitoneal injection 20 mg/kg single, CDK inhibitor oral 100 mg/kg single 3 h before, cycle 8 days", "value": 60, "unit": "%"}, {"measurement": "Relative remission rate (%)", "setting": "[1]; Example 53, Oxaliplatin intraperitoneal injection 20 mg/kg single, CDK inhibitor oral 100 mg/kg single 4 h before, cycle 8 days", "value": 50, "unit": "%"}, {"measurement": "Relative remission rate (%)", "setting": "[1]; Example 54, Oxaliplatin intraperitoneal injection 20 mg/kg single, CDK inhibitor oral 100 mg/kg single 5 h before, cycle 8 days", "value": 30, "unit": "%"}, {"measurement": "Relative remission rate (%)", "setting": "[1]; Example 55, Oxaliplatin intraperitoneal injection 20 mg/kg single, CDK inhibitor oral 100 mg/kg single 6 h before, cycle 8 days", "value": 80, "unit": "%"}, {"measurement": "Relative remission rate (%)", "setting": "[1]; Example 56, Oxaliplatin intraperitoneal injection 20 mg/kg single, CDK inhibitor oral 100 mg/kg single 7 h before, cycle 8 days", "value": 60, "unit": "%"}, {"measurement": "Relative remission rate (%)", "setting": "[1]; Example 57, Oxaliplatin intraperitoneal injection 20 mg/kg single, CDK inhibitor oral 100 mg/kg single 8 h before, cycle 8 days", "value": 60, "unit": "%"}, {"measurement": "Relative remission rate (%)", "setting": "[1]; Example 58, Oxaliplatin intraperitoneal injection 20 mg/kg single, CDK inhibitor oral 100 mg/kg single 9 h before, cycle 8 days", "value": 80, "unit": "%"}, {"measurement": "Relative remission rate (%)", "setting": "[1]; Example 59, Oxaliplatin intraperitoneal injection 20 mg/kg single, CDK inhibitor oral 100 mg/kg single 10 h before, cycle 8 days", "value": 70, "unit": "%"}, {"measurement": "Relative remission rate (%)", "setting": "[1]; Example 60, Oxaliplatin intraperitoneal injection 20 mg/kg single, CDK inhibitor oral 100 mg/kg single 11 h before, cycle 8 days", "value": 70, "unit": "%"}, {"measurement": "Relative remission rate (%)", "setting": "[1]; Example 61, Oxaliplatin intraperitoneal injection 20 mg/kg single, CDK inhibitor oral 100 mg/kg single 12 h before, cycle 8 days", "value": 50, "unit": "%"}, {"measurement": "Relative remission rate (%)", "setting": "[1]; Example 62, Oxaliplatin intraperitoneal injection 20 mg/kg single, CDK inhibitor oral 100 mg/kg single 14 h before, cycle 8 days", "value": 60, "unit": "%"}, {"measurement": "Relative remission rate (%)", "setting": "[1]; Example 63, Oxaliplatin intraperitoneal injection 20 mg/kg single, CDK inhibitor oral 100 mg/kg single 16 h before, cycle 8 days", "value": 80, "unit": "%"}, {"measurement": "Relative remission rate (%)", "setting": "[1]; Example 64, Oxaliplatin intraperitoneal injection 20 mg/kg single, CDK inhibitor oral 100 mg/kg single 18 h before, cycle 8 days", "value": 80, "unit": "%"}, {"measurement": "Relative remission rate (%)", "setting": "[1]; Example 65, Oxaliplatin intraperitoneal injection 20 mg/kg single, CDK inhibitor oral 100 mg/kg single 20 h before, cycle 8 days", "value": 70, "unit": "%"}, {"measurement": "Relative remission rate (%)", "setting": "[1]; Example 66, Oxaliplatin intraperitoneal injection 20 mg/kg single, CDK inhibitor oral 100 mg/kg single 22 h before, cycle 8 days", "value": 50, "unit": "%"}, {"measurement": "Relative remission rate (%)", "setting": "[1]; Example 67, Oxaliplatin intraperitoneal injection 20 mg/kg single, CDK inhibitor oral 100 mg/kg single 24 h before, cycle 8 days", "value": 50, "unit": "%"}, {"measurement": "Relative remission rate (%)", "setting": "[1]; Example 68, Oxaliplatin intraperitoneal injection 20 mg/kg single, CDK inhibitor oral 100 mg/kg single 48 h before, cycle 8 days", "value": 0, "unit": "%"}, {"measurement": "Relative remission rate (%)", "setting": "[1]; Example 127, Irinotecan (CPT-11) intramuscular injection 240 mg/kg single, CDK inhibitor oral 50 mg/kg single 1 h before, cycle 7 days", "value": 70, "unit": "%"}, {"measurement": "Relative remission rate (%)", "setting": "[1]; Example 170, Gemcitabine (GEM) intraperitoneal injection 120 mg/kg single, CDK inhibitor oral 60 mg/kg single 0.5 h before, cycle 8 days", "value": 50, "unit": "%"}, {"measurement": "Relative remission rate (%)", "setting": "[1]; Example 171, Gemcitabine (GEM) intraperitoneal injection 120 mg/kg single, CDK inhibitor oral 60 mg/kg single 1 h before, cycle 8 days", "value": 50, "unit": "%"}, {"measurement": "Relative remission rate (%)", "setting": "[1]; Example 172, Gemcitabine (GEM) intraperitoneal injection 120 mg/kg single, CDK inhibitor oral 60 mg/kg single 2 h before, cycle 8 days", "value": 40, "unit": "%"}, {"measurement": "Relative remission rate (%)", "setting": "[1]; Example 173, Gemcitabine (GEM) intraperitoneal injection 120 mg/kg single, CDK inhibitor oral 60 mg/kg single 4 h before, cycle 8 days", "value": 60, "unit": "%"}, {"measurement": "Relative remission rate (%)", "setting": "[1]; Example 174, Gemcitabine (GEM) intraperitoneal injection 120 mg/kg single, CDK inhibitor oral 60 mg/kg single 6 h before, cycle 8 days", "value": 50, "unit": "%"}, {"measurement": "Relative remission rate (%)", "setting": "[1]; Example 175, Gemcitabine (GEM) intraperitoneal injection 120 mg/kg single, CDK inhibitor oral 60 mg/kg single 8 h before, cycle 8 days", "value": 50, "unit": "%"}, {"measurement": "Relative remission rate (%)", "setting": "[1]; Example 176, Gemcitabine (GEM) intraperitoneal injection 120 mg/kg single, CDK inhibitor oral 60 mg/kg single 10 h before, cycle 8 days", "value": 50, "unit": "%"}, {"measurement": "Relative remission rate (%)", "setting": "[1]; Example 177, Gemcitabine (GEM) intraperitoneal injection 120 mg/kg single, CDK inhibitor oral 60 mg/kg single 12 h before, cycle 8 days", "value": 40, "unit": "%"}, {"measurement": "Relative remission rate (%)", "setting": "[1]; Example 178, Gemcitabine (GEM) intraperitoneal injection 120 mg/kg single, CDK inhibitor oral 60 mg/kg single 14 h before, cycle 8 days", "value": 60, "unit": "%"}, {"measurement": "Relative remission rate (%)", "setting": "[1]; Example 193, Gemcitabine (GEM) oral administration 300 mg/kg single, CDK inhibitor oral 200 mg/kg single, 2 h before, 8 days", "value": 60, "unit": "%"}, {"measurement": "Relative remission rate (%)", "setting": "[1]; Example 227, Topotecan intravenous injection 20 mg/kg single, CDK inhibitor oral 100 mg/kg single, 0.5 h before, 14 days", "value": 70, "unit": "%"}, {"measurement": "Relative remission rate of other administration mode", "setting": "[2]; Example 395, Carboplatin (CBP) oral administration 200 mg/kg single, CDK inhibitor local administration 100 mg/kg single, 24 h before, cycle 10 days", "value": 20, "unit": "%"}, {"measurement": "Relative remission rate of oral administration", "setting": "[2]; Example 395, Carboplatin (CBP) oral administration 200 mg/kg single, CDK inhibitor oral 100 mg/kg single, 24 h before, cycle 10 days", "value": 60, "unit": "%"}, {"measurement": "Relative remission rate of other administration mode", "setting": "[2]; Example 402, Gemcitabine (GEM) intramuscular injection 120 mg/kg single, CDK inhibitor intramuscular injection 50 mg/kg single, 24 h before, cycle 8 days", "value": 10, "unit": "%"}, {"measurement": "Relative remission rate of oral administration", "setting": "[2]; Example 402, Gemcitabine (GEM) intramuscular injection 120 mg/kg single, CDK inhibitor oral 50 mg/kg single, 24 h before, cycle 8 days", "value": 40, "unit": "%"}, {"measurement": "Relative remission rate of other administration mode", "setting": "[2]; Example 404, Gemcitabine and carboplatin intraperitoneal injection 120 (G) 100 (C) mg/kg single, CDK inhibitor intramuscular injection 100 mg/kg single, 12 h before, cycle 8 days", "value": 20, "unit": "%"}, {"measurement": "Relative remission rate of oral administration", "setting": "[2]; Example 404, Gemcitabine and carboplatin intraperitoneal injection 120 (G) 100 (C) mg/kg single, CDK inhibitor oral 150 mg/kg single, 12 h before, cycle 8 days", "value": 60, "unit": "%"}, {"measurement": "Relative remission rate of other administration mode", "setting": "[2]; Example 405, Gemcitabine and carboplatin intraperitoneal injection 120 (G) 100 (C) mg/kg single, CDK inhibitor intramuscular injection 100 mg/kg single, 24 h before, cycle 8 days", "value": 10, "unit": "%"}, {"measurement": "Relative remission rate of oral administration", "setting": "[2]; Example 405, Gemcitabine and carboplatin intraperitoneal injection 120 (G) 100 (C) mg/kg single, CDK inhibitor oral 150 mg/kg single, 24 h before, cycle 8 days", "value": 50, "unit": "%"}, {"measurement": "relief of diarrhea by oral, injection and local administration", "setting": "[2]; diarrhea caused by docetaxel, carboplatin, gemcitabine, and gemcitabine plus carboplatin, under certain conditions, effect of oral administration most significant", "value": "can relieve diarrhea"}]}
